In EP2601945A1 (Thomale, Jürgen, priority 2011, dated 2013):
“Also recorded” adds a separate entry of the source.

Columns and labels:
[1] = tested on: outer hair cells and stria vascularis marginal cells; experiment: Electron microscopy of cochlear cell micromorphology; assay type: in vivo, mice; settings: four times
[2] = tested on: K-rasG12D -induced lung tumors; experiment: Tumor growth in the K-ras mouse model of NSCLC (H&E lung sections, Bioquant image analysis); assay type: in vivo, mice; settings: for tumor number: not statistically significant
Text: (§1) Oncogenic mutations in the gene encoding the small GTPase K-ras are among the most frequently detected alterations in human lung cancer and approximately 30 % of all cases of human non-small cell lung cancer (NSCLC) carry such an activated K-ras allele with mutations predominantly located in codons 12, 13 or 61. Based on this observation a mouse model for NSCLC was recently established (Sweet-Cordero et al., 2004). The local activation of a silent transgenic K-rasG12D allele in these mice is achieved by intratracheal adenoviral transfection with the Cre recombinase (AdCre). The Cre recombinase cuts out a "stop" cassette and allows for expression of the oncogenic K-ras protein in transfected lung cells.
A cohort of tumor-bearing mice was randomly divided into three subgroups receiving different treatment regimens. Group one (mock treatment control) received i.p. injections once per week with PBS for 4 weeks. […] Mice were sacrificed 5 days after the last dose; lungs were dissected and prepared for paraffin sections. Following H&E staining for morphological structures, the percentage tumor burden, the number of tumors per lung and the average tumor size was determined microscopically (Figure 13 B-D, 14). […] For quantitative analysis the Bioquant image analysis software was used to blindly and randomly quantify the area of all lung tumors and the total lung surface area in 4 lung sections per mouse.

hearing capability = experiment: BAER hearing test after repetitive cis-platin with or without DPH, or DPH alone
Description: Both groups received additional i.p. injections with saline solution (500 µl) in order to protect the mice from kidney injury. […] Like in the clinical BAER tests for humans, the hearing threshold was determined as the disappearance of wave V. This value was converted into percentage of hearing capability as compared to the untreated controls (dB to %). […] The mean value of the untreated mice was set as 100 %.

[3] = tested on: Pt-GG adducts in DNA of lung tumor cells; experiment: ICA of Pt-GG adducts in primary lung tumor cells; assay type: in vivo, mice
Text: as §1, with “cells. When the initiation is performed at the age of 8 weeks, mice are diagnosed 16 weeks later with lung tumors at 100 % penetrance. The morphology and molecular characteristics of the tumors are very similar to human NSCLC and they respond with regression to chemotherapy with cis-platin.” for “cells.”
Mice bearing K-rasG12D -induced lung tumors were divided into two groups for acute high dose and for chronic low dose treatment. Animals received mocktreatment with PBS or cis-platin alone or cis-platin plus treatment with DPH. […] All mice were sacrificed 24 hours after the last treatment and cochleae, kidneys and lungs were resected for analysis of DNA adduct accumulation.

[4] = cis-platin 7 mg/kg once per week for 4 weeks, DPH 57 mg/kg
[5] = cis-platin in combination with DPH (57 mg/kg 30 minutes before each dose)
[6] = cis-platin alone (7 mg/kg once per week for 4 weeks)

SMILES | micromorphology of outer hair cells and marginal cells ([1]; DPH alone 57 mg/kg every second day) | micromorphology of outer hair cells and marginal cells ([1]; cis-platin 5 mg/kg plus DPH 57 mg/kg every second day) | average tumor size, cis-platin alone versus cis-platin plus inhibitor group [2, 4] | mean tumor burden in the lung, cis-platin alone versus in combination with DPH [2, 4] | reduction of average tumor size [2, 5] | reduction of tumor burden [2, 5] | tumor number ([2]; cis-platin plus DPH versus PBS) | hearing ability throughout the experiment (hearing capability; DPH alone 57 mg/kg repetitively, no cis-platin) | hearing sensitivity 24 hours later (hearing capability; DPH alone, single dose 57 mg/kg, BAER repeated 24 hours later) | hearing loss (hearing capability; cis-platin cumulated dose 20 mg/kg in combination with DPH 57 mg/kg 30 minutes before each dose) | mean hearing capability, percentage of untreated controls (hearing capability; cis-platin cumulated dose 40 mg/kg plus DPH 57 mg/kg before each dose) | reduction of Pt-GG levels in lung tumor cells by DPH co-treatment ([3]; DPH 57 mg/kg 30 minutes prior to cis-platin, acute 10 mg/kg or chronic 4 x 5 mg/kg) | micromorphology of outer hair cells and marginal cells ([1]; cis-platin alone 5 mg/kg every second day) | reduction of average tumor size [2, 6] | reduction of tumor burden [2, 6] | tumor number ([2]; cis-platin alone versus PBS) | hearing capability, percentage of controls (hearing capability; cis-platin alone 5 mg/kg every second day, cumulated dose 20 mg/kg, BAER 24 h after last treatment) | reduction of hearing capacity (BAER) (hearing capability; cis-platin treatment alone, mice (description)) | adduct levels in lung tumor cells, repetitive treatment compared to single high dose treatment ([3]; cis-platin 4 x 5 mg/kg every second day versus 10 mg/kg once)
CN(C)CCOC(c1ccccc1)c1ccccc1 [DPH, diphenhydramine] | No signs of autophagy or necrosis | much less frequent and properly shaped; also recorded: rare autophagosome-like structures | no difference | no significant difference | about 50% | about 80% | reduced | did not show any difference | regained their normal hearing sensitivity | 20% | about 70% | no reduction |  |  |  |  |  |  | 
N.N.[Cl][Pt][Cl] [cis-platin, cis-diaminedichloro-platinum(II)] |  |  |  |  |  |  |  |  |  |  |  |  | necrotic cell death | about 50% | about 80% | reduced | about 50% | about 45% | about two-fold higher
